Patent publication US8093210B2, “Treatment of sepsis with 5-ethyl-1-phenyl-2(1H)-pyridone” (Solanan, Inc., priority 2008, dated 2012)
Values after ≈ are worked out from the molar mass of the structure shown. Read-outs that look alike come from different tables or passages of the source.

What was measured:
IL-12 = test: Serum IL-12 (ELISA) in LPS/D-galactosamine model of sepsis (Example 5); assay type: in vivo, mice; conditions: 90 minutes after the treatment
Procedure: Mice were treated simultaneously with LPS (10 μg/kg) and D-galactosamine (600 mg/kg) (Galanos C, Freudenberg M A, Reutter W. […] They were anesthetized with halothane and blood was collected at different times by cardiac puncture and centrifuged to separate serum. The serum levels of alanine transaminase (ALT) and aspartate transaminase (AST) were measured by a commercial diagnostic company (Idexx Laboratories). The serum levels of tumor necrosis factor-alpha (TNF-α), interleukin-6 (IL-6) and interleukin-12 (IL-12) were determined by commercially available mouse enzyme-linked immunosorbent assay (ELISA) kits (BD BioSciences, San Jose, Calif.).
The methodology utilized in Example 4 was used to measure and analyze the serum enzyme data for statistical significance. The serum levels of proinflammatory cytokines between the 5-EPP treated and saline control groups were analyzed for statistical significance by one-way ANOVA and a Tukey's multiple comparison test (Prism™ for Windows 4.02, Graphpad Software, Inc. San Diego, Calif.).

[1] = Solubility in water and isotonic saline (Example 9); assay type: physicochemical; conditions: for solubility: thermodynamic from solid, room temperature, colorless, clear solution, read-out: solubility (soluble at)
Procedure: All solutions were prepared by weighing the chemical, transferring his solid into a polypropylene tube or polystyrene tube and then adding either water or saline to the final desired volume. The compound was dissolved by intermittent mixing with a vortex mixer, gentle heating in a warm water bath (40-45° C.) and sonication (3×15 min.).

Structure (SMILES): CCc1ccc(=O)n(-c2ccccc2)c1 [5-EPP, 5-ethyl-1-phenyl-2-(1H)-pyridone]
- serum level of IL-12 (IL-12; 50 mg/kg): 2,809 ± 325 pg/mL
- serum level of IL-12 (IL-12; 100 mg/kg): 1,371 ± 124 pg/mL
- serum level of IL-12 (IL-12; 200 mg/kg): 870 ± 99 pg/mL
- Results (solubility) ([1]; DI Water, final 5-EPP 20.0 mg/mL): soluble
- Results (solubility) ([1]; Isotonic saline, final 5-EPP 20.0 mg/mL): soluble
- Results (solubility) ([1]; Isotonic saline, final 5-EPP 20.1 mg/mL): soluble
- solubility ([1]; saline or isotonic, saline): 20 mg/mL (≈ 100 mM)
- precipitation of dissolved compound ([1]; standing at room temperature overnight or following refrigeration): no precipitation was observed
- solubility ([1]; water): 20 mg/mL (≈ 100 mM)
- concentrations that do not completely dissolve ([1]; water or saline): ≥ 30000 µg/mL
